The numbers were not newly measured in publication PMC12309854, “Evidencing the role of a conserved polar signaling channel in the activation mechanism of the μ-opioid receptor” (Computational and Structural Biotechnology Journal, 2025), which cites them from elsewhere.

This data set deals with MOP. More on the design: method as in PMID 31527522. Conditions: value given in the method for the Cheng-Prusoff calculation, source not stated; protocol ref 58; read-out: Kd of the radioligand. The method, then: Binding assays were carried out following a previously published protocol, at 25 °C for a duration of 60 min using a 50 mM Tris–HCl buffer (pH 7.4) in glass tubes. […] Non-specific binding was evaluated u ...

The Kd is the free concentration of one partner at which half of the binding sites on the other are occupied at equilibrium, for simple one-to-one binding. DAMGO [[^3H]DAMGO]: the Kd is 0.5 nM.
